US20070004660A1, “Synergistic Modulation of Flt3 Kinase Using Alkylquinolines and Alkylquinazolines” (priority 2005, published 2007)

Key:
[1] = target: T1, isolated kinase domain of the human FLT3 receptor (a.a. 571-993) (Homo sapiens, UniProt P36888); experiment: FLT3 fluorescence polarization kinase assay; assay type: biochemical; conditions: 150 uM ATP; uncertainty ±10%
T1 construct: human FLT3 receptor (a.a. 571-993)
T1 sequence (P36888 571-993): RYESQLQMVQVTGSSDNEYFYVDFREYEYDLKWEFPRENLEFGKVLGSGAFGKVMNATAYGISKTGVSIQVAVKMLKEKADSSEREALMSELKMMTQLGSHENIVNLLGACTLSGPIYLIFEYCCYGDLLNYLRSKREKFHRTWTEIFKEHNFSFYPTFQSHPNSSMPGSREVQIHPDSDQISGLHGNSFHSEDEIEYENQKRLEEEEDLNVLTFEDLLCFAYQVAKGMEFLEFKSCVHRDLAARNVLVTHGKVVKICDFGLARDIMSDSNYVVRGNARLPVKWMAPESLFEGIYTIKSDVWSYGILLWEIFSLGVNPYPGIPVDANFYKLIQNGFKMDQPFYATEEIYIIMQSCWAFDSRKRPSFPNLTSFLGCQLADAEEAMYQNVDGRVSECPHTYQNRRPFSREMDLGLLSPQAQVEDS
Protocol: The FLT3 FP assay utilizes the fluorescein-labeled phosphopeptide and the anti-phosphotyrosine antibody included in the Panvera Phospho-Tyrosine Kinase Kit (Green) supplied by Invitrogen. When FLT3 phosphorylates polyGlu4Tyr, the fluorescein-labeled phosphopeptide is displaced from the anti-phosphotyrosine antibody by the phosphorylated poly Glu4Tyr, thus decreasing the FP value. The FLT3 kinase reaction is incubated at room temperature for 30 minutes under the following conditions: 10 nM FLT3 571-993, 20 ug/mL poly Glu4Tyr, 150 uM ATP, 5 mM MgCl2, 1% compound in DMSO. The kinase reaction is stopped with the addition of EDTA. The fluorescein-labeled phosphopeptide and the anti-phosphotyrosine antibody are added and incubated for 30 minutes at room temperature.
All data points are an average of triplicate samples. Inhibition and IC50 data analysis was done with GraphPad Prism using a non-linear regression fit with a multiparamater, sigmoidal dose-response (variable slope) equation.

MV4-11 cells = experiment: Inhibition of MV4-11 cell proliferation (CellTiterGlo, 72 h); assay type: cell-based; conditions: Homo sapiens; 72 h growth inhibition; uncertainty ±20%
Protocol: MV4-11 cells cannot grow and survive without active FLT3ITD.
To measure proliferation inhibition by test compounds, the luciferase based CellTiterGlo reagent (Promega), which quantifies total cell number based on total cellular ATP concentration, was used. Cells are plated at 10,000 cells per well in 100 ul of in RPMI media containing penn/strep, 10% FBS and 1 ng/ml GM-CSF or 1 ng/ml IL-3 for MV4-11 and Baf3 cells respectively.
Compound dilutions or 0.1% DMSO (vehicle control) are added to cells and the cells are allowed to grow for 72 hours at standard cell growth conditions (37° C., 5% CO2). For activity measurements in MV4-11 cells grown in 50% plasma, cells were plated at 10,000 cells per well in a 1:1 mixture of growth media and human plasma (final volume of 100 μL). To measure total cell growth an equal volume of CellTiterGlo reagent was added to each well, according to the manufacturer's instructions, and luminescence was quantified. Total cell growth was quantified as the difference in luminescent counts (relative light units, RLU) of cell number at Day 0 compared to total cell number at Day 3 (72 hours of growth and/or compound treatment). One hundred percent inhibition of growth is defined as an RLU equivalent to the Day 0 reading. Zero percent inhibition was defined as the RLU signal for the DMSO vehicle control at Day 3 of growth. All data points are an average of triplicate samples. […] Inhibition and IC50 data analysis was done with GraphPad Prism using a non-linear regression fit with a multiparamater, sigmoidal dose-response (variable slope) equation.
MV4-11 cells express the FLT3 internal tandem duplication mutation, and thus are entirely dependent upon FLT3 activity for growth. […] In contrast, the Baf3 cell proliferation is driven by the cytokine IL-3 and thus are used as a non-specific toxicity control for test compounds.

| Structure (SMILES) | IC50 [1] [µM] | IC50 (MV4-11 cells) [µM] |
| --- | --- | --- |
| O=C(Nc1ccc(N2CCCC2)cc1)N1CCC(c2ncnc3cc(N4CC[C@H](O)C4)ccc23)CC1 [Example 129, (S)-4-[7-(3-Hydroxy-pyrrolidin-1-yl)-quinazolin-4-yl]-piperidine-1-carboxylic acid (4-pyrrolidin-1-yl-phenyl)-amide] | 0.001 | 0.009 |
| COc1ccc2ncnc(C3CCN(C(=O)Nc4ccc(OC(C)C)cc4)CC3)c2c1 [Compound 203, 4-(6-Methoxy-quinazolin-4-yl)-piperidine-1-carboxylic acid (4-isopropoxy-phenyl)-amide] | 0.297 | 0.149 |
| CN1CCN(CCCOc2ccc3c(C4CCN(C(=S)Nc5ccc(N6CCOCC6)nc5)CC4)ncnc3c2)CC1 [Example 106, 4-{7-[3-(4-Methyl-piperazin-1-yl)-propoxy]-quinazolin-4-yl}-piperidine-1-carbothioic acid (6-morpholin-4-yl-pyridin-3-yl)-amide] | 2.2 | 1 |
| CN(C)c1c(NCCCOc2ccc3c(C4CCN(C(=O)Nc5ccc(N6CCCC6)nc5)CC4)ncnc3c2)c(=O)c1=O [Example 111, 4-{7-[3-(2-Dimethylamino-3,4-dioxo-cyclobut-1-enylamino)-propoxy]-quinazolin-4-yl}-piperidine-1-carboxylic acid (6-pyrrolidin-1-yl-pyridin-3-yl)-amide] | 0.019 | 0.625 |
| O=C(Nc1ccc(N2CCOCC2)cc1)N1CCC(c2ncnc3cc(N4CC[C@@H](O)C4)ccc23)CC1 [Example 126, (R)-4-[7-(3-Hydroxy-pyrrolidin-1-yl)-quinazolin-4-yl]-piperidine-1-carboxylic acid (4-morpholin-4-yl-phenyl)-amide] | 0.025 | 0.096 |
| CN1CCN(c2ccc3ncnc(C4CCN(C(=O)Nc5ccc(N6CCOCC6)cc5)CC4)c3c2)CC1 [Compound 198, 4-[6-(4-Methyl-piperazin-1-yl)-quinazolin-4-yl]-piperidine-1-carboxylic acid (4-morpholin-4-yl-phenyl)-amide] | 10.2 | 0.227 |
| O=C(Nc1ccc(N2CCOCC2)nc1)N1CCC(c2ncnc3cc(OCCCn4cnnc4)ccc23)CC1 [Example 110, 4-[7-(3-[1,2,4]Triazol-4-yl-propoxy)-quinazolin-4-yl]-piperidine-1-carboxylic acid (6-morpholin-4-yl-pyridin-3-yl)-amide] | 0.028 | 0.893 |
| O=C(Nc1ccc(N2CCCC2)nc1)N1CCC(c2ncnc3cc(OCCCn4cnnc4)ccc23)CC1 [Example 114, 4-[7-(3-[1,2,4]Triazol-4-yl-propoxy)-quinazolin-4-yl]-piperidine-1-carboxylic acid (6-pyrrolidin-1-yl-pyridin-3-yl)-amide] | 0.009 | 0.178 |
| O=C(NCCCOc1ccc2c(C3CCN(C(=O)Nc4ccc(N5CCOCC5)nc4)CC3)ncnc2c1)N1CCOCC1 [Example 113, Morpholine-4-carboxylic acid (3-{4-[1-(6-morpholin-4-yl-pyridin-3-ylcarbamoyl)-piperidin-4-yl]-quinazolin-7-yloxy}-propyl)-amide] | 0.132 | 0.36 |
| COc1cc2ncnc(C3CCN(C(=O)NC4CCCCC4)CC3)c2cc1OC [Example 42, 4-(6,7-Dimethoxy-quinazolin-4-yl)-piperidine-1-carboxylic acid cyclohexylamide] | > 10 | > 10 |
| CN(C)C(=O)N1CCN(c2ccc3c(C4CCN(C(=O)Nc5ccc(N6CCCC6)cc5)CC4)ncnc3c2)CC1 [Example 168, 4-{4-[1-(4-Pyrrolidin-1-yl-phenylcarbamoyl)-piperidin-4-yl]-quinazolin-7-yl}-piperazine-1-carboxylic acid dimethylamide] | 0.003 | 0.017 |
| COCC(=O)N1CCN(c2ccc3c(C4CCN(C(=O)Nc5ccc(N6CCCC6)cc5)CC4)ncnc3c2)CC1 [Compound 200] | 0.021 | 0.006 |
| CS(=O)(=O)N1CC[C@@H](Oc2ccc3c(C4CCN(C(=O)Nc5ccc(N6CCCC6)cc5)CC4)ncnc3c2)C1 [Compound 177, (R)-4-[7-(1-Methanesulfonyl-pyrrolidin-3-yloxy)-quinazolin-4-yl]-piperidine-1-carboxylic acid (4-pyrrolidin-1-yl-phenyl)-amide] | 0.001 | 0.265 |
| CC(C)Oc1ccc(NC(=O)N2CCC(c3ncnc4cc(OCCCc5nnn[nH]5)ccc34)CC2)cc1 [Compound 204, 4-{7-[3-(1H-Tetrazol-5-yl)-propoxy]-quinazolin-4-yl}-piperidine-1-carboxylic acid (4-isopropoxy-phenyl)-amide] | 0.306 | > 1 |
| CC(C)c1ccc(NC(=O)N2CCC(c3ccnc4ccccc34)CC2)cc1 [Example 5, 4-Quinolin-4-yl-piperidine-1-carboxylic acid (4-isopropyl-phenyl)-amide] | 0.094 | 0.29 |

Second part, the molecule after the results:

| IC50 [1] [µM] | IC50 (MV4-11 cells) [µM] | Structure (SMILES) |
| --- | --- | --- |
| 1.6 | 1.8 | COc1cc2ncnc(C3CCN(C(=O)Nc4ccc(C)cc4)CC3)c2cc1OC [Example 48, 4-(6,7-Dimethoxy-quinazolin-4-yl)-piperidine-1-carboxylic acid p-tolylamide] |
| 0.083 | 0.131 | COc1cc2ncnc(C3CCN(C(=O)Nc4ccc(OC(F)(F)F)cc4)CC3)c2cc1OC [Example 50, 4-(6,7-Dimethoxy-quinazolin-4-yl)-piperidine-1-carboxylic acid (4-trifluoromethoxy-phenyl)-amide] |
| 0.73 | 3.3 | COc1ccc(NC(=O)N2CCC(c3ncnc4cc(OC)c(OC)cc34)CC2)cc1 [Example 41, 4-(6,7-Dimethoxy-quinazolin-4-yl)-piperidine-1-carboxylic acid (4-methoxy-phenyl)-amide] |
| 2 | 4.1 | COc1cc2ncnc(C3CCN(C(=O)Nc4ccc5c(c4)CCO5)CC3)c2cc1OC [Example 27, 4-(6,7-Dimethoxy-quinazolin-4-yl)-piperidine-1-carboxylic acid (2,3-dihydro-benzofuran-5-yl)-amide] |
| 0.99 | 2 | COc1cc2ncnc(C3CCN(C(=O)Nc4ccc(C(F)(F)F)cc4)CC3)c2cc1OC [Example 46, 4-(6,7-Dimethoxy-quinazolin-4-yl)-piperidine-1-carboxylic acid (4-trifluoromethyl-phenyl)-amide] |
| 0.139 | 0.11 | COc1cc2ncnc(C3CCN(C(=O)Nc4ccc(N5CCCCC5)c(Cl)c4)CC3)c2cc1OC [Example 71, 4-(6,7-Dimethoxy-quinazolin-4-yl)-piperidine-1-carboxylic acid (3-chloro-4-piperidin-1-yl-phenyl)-amide] |
| 6.6 | 1.1 | COc1cc2ncnc(C3CCN(C(=O)Nc4ccc(N5CCN(C)CC5)cc4)CC3)c2cc1OC [Example 20, 4-(6,7-Dimethoxy-quinazolin-4-yl)-piperidine-1-carboxylic acid [4-(4-methyl-piperazin-1-yl-phenyl)]-amide] |
| 0.027 | 0.008 | COc1cc2ncnc(C3CCN(C(=O)Nc4ccc(N5CCCCCC5)cc4)CC3)c2cc1OC [Example 70, 4-(6,7-Dimethoxy-quinazolin-4-yl)-piperidine-1-carboxylic acid (4-azepan-1-yl-phenyl)-amide] |
| 0.002 | 0.003 | COc1cc2c(C3CCN(C(=O)Nc4ccc(N5CCCC5)cc4)CC3)ncnc2cc1OCCCN1CCN(C)CC1 [Compound 208, 4-{6-Methoxy-7-[3-(4-methyl-piperazin-1-yl)-propoxy]-quinazolin-4-yl}-piperidine-1-carboxylic acid (4-pyrrolidin-1-yl-phenyl)-amide] |
